4 molecules from patent US9737075B2, “Synergistic benzoxaborole-containing anti-fungicidal composition” (The Penn State Research Foundation, priority 2015, dated 2017) can be followed below.

SMILES strings stand for the structures. ≈ marks a conversion by molar mass, not a printed value. Where two headings read alike, the source gives them in different places.

Holding throughout (assay type): cell-based
The test system of one assay is Fusarium graminearum. The assay can be described thus: microbe, parasite or virus in culture. The note with it: Fusarium graminearum; for MIC: 72 h, read-out: Independent MIC.
The subject of assay [1] is Mycosphaerella zeae-maydis. In words: Broth microdilution MIC of individual antifungals. The note with it: individual antifungal, 25% PDB, about 25° C., 72 hours, range over N independent triplicate studies; for MIC: Didymella maydis. (In general: Dilution methods test growth across graded concentrations, often in twofold steps.)
In another assay the test system is Phytophthora pini. In words: Broth microdilution MIC of individual antifungals. The note with it: individual antifungal, 25% PDB, about 25° C., 72 hours, range over N independent triplicate studies.
The next assay concerns Mucor sp. In words: Broth microdilution MIC of individual antifungals. The note with it: individual antifungal, 25% PDB, about 25° C., 72 hours, range over N independent triplicate studies.
The next assay concerns Stachybotrys chartarum. In words: Broth microdilution MIC of individual antifungals. The note with it: individual antifungal, 25% PDB, about 25° C., 72 hours, range over N independent triplicate studies; for MIC: read-out: Independent MIC.
The subject of the next assay is Botrytis cinerea 10-1728. In words: Broth microdilution MIC of individual antifungals. The note with it: Botrytis cinerea 10-1728, individual antifungal, 25% PDB, about 25° C., 72 hours, range over N independent triplicate studies; for MIC: 101728, read-out: Independent MIC.
For another assay, the system named is Aspergillus fumigatus. The assay can be described thus: Broth microdilution MIC of individual antifungals. The note with it: individual antifungal, 25% PDB, about 25° C., 72 hours, range over N independent triplicate studies; for MIC: read-out: Independent MIC.
The test system of a further assay is Penicillium chrysogenum. In words: Broth microdilution MIC of individual antifungals. The note with it: individual antifungal, 25% PDB, about 25° C., 72 hours, range over N independent triplicate studies.
For a further assay, the system named is Botrytis cinerea B17. In words: Broth microdilution MIC of individual antifungals. The note with it: Botrytis cinerea B17, individual antifungal, 25% PDB, about 25° C., 72 hours, range over N independent triplicate studies; for MIC: read-out: Independent MIC.
Another assay has as its system Pythium aphanodermatum. The assay can be described thus: Broth microdilution MIC of individual antifungals. The note with it: individual antifungal, 25% PDB, about 25° C., 72 hours, range over N independent triplicate studies.
A further assay concerns Alternaria solani. The assay can be described thus: Broth microdilution MIC of individual antifungals. The note with it: individual antifungal, 25% PDB, about 25° C., 72 hours, range over N independent triplicate studies; for MIC: read-out: Independent MIC.
The test system of the next assay is Aspergillus flavus. The assay can be described thus: Broth microdilution MIC of individual antifungals. The note with it: read-out: Independent MIC.
The subject of assay [2] is Fusarium solani f. sp. pisi (MP VI). The assay can be described thus: Broth microdilution MIC of individual antifungals. The note with it: Fusarium solani f. sp. pisi (MP VI); individual antifungal, 25% PDB, about 25° C., 72 hours; range over N independent triplicate studies; read-out: Independent MIC.
The next assay relates to Rhizopus sp. The assay can be described thus: Broth microdilution MIC of individual antifungals. The note with it: Rhizopus, 72 h, Rhizopus sp.; individual antifungal, 25% PDB, about 25° C., 72 hours; range over N independent triplicate studies; read-out: Independent MIC.
For the next assay, the system named is Fusarium verticillioides. In words: Broth microdilution MIC of individual antifungals. The note with it: individual antifungal, 25% PDB, about 25° C., 72 hours, range over N independent triplicate studies, read-out: Independent MIC.
The subject of assay [3] is Fusarium oxysporum f. sp. lycopersici. In words: Broth microdilution MIC of individual antifungals. The note with it: individual antifungal, 25% PDB, about 25° C., 72 hours, range over N independent triplicate studies.
Another assay relates to Sclerotinia homoeocarpa. In words: Broth microdilution MIC of individual antifungals. The note with it: Clarireedia homoeocarpa; Sclerotinia homoeocarpa; individual antifungal, 25% PDB, about 25° C., 72 hours; range over N independent triplicate studies; read-out: Independent MIC.
For a further assay, the system named is Fusarium oxysporum ST33. In words: Broth microdilution MIC of individual antifungals. The note with it: individual antifungal, 25% PDB, about 25° C., 72 hours, range over N independent triplicate studies.
In the next assay the test system is Aspergillus niger. In words: Broth microdilution MIC of individual antifungals. The note with it: individual antifungal, 25% PDB, about 25° C., 72 hours, range over N independent triplicate studies, read-out: Independent MIC.
Another assay has as its system Aureobasidium pullulans. In words: Broth microdilution MIC of individual antifungals. The note with it: individual antifungal, 25% PDB, about 25° C., 72 hours, range over N independent triplicate studies, read-out: Independent MIC.
Another assay relates to Candida albicans. In words: Broth microdilution MIC of individual antifungals. The note with it: individual antifungal, 25% PDB, about 25° C., 72 hours, range over N independent triplicate studies, read-out: Independent MIC.
For assay [4], the system named is two dozen different fungal organisms. The assay can be described thus: Broth microdilution MIC, summary over the organisms examined. The note with it: against many species tested here. As for the experimental part:
All antifungal susceptibility assays were conducted in triplicate and N independent times. Thus, the inhibition studies were conducted a total of 3·N times. […] Thus, each synergy assay (combination of two antifungals) was conducted in conjunction with independent MIC determination. FICI values were calculated by comparing the inhibition activity of the combination (benzoxaborole+another antifungal) against the efficacy of the individual antifungal within the same experiment (using the same experimental conditions).
The studies were performed in flat bottom, 96-well microtiter plates (Greiner Bio-One).
Plates sealed with clear polyester film (VWR) were incubated at a temperature of about 25° C. The progress of fungal growth was monitored at 48 hours, 72 hours, 7 days, and 15 days. […] In order to establish appropriate comparison between the different fungi, the FICI (thus, the MICs used) determination was done at 72 hours for all cases discussed herein.
The MICs of the individual antifungals (MICBoron and MICA) and in combination (MICBA) were determined after 72 hours of incubation. […] MICA is defined as the MIC value of every other individual non-benzoxaborole-based antifungal. MICBA is defined as the MIC value when the benzoxaborole antifungal is combined with another non-benzoxaborole antifungal. […] The combination studies were performed in triplicate in flat bottom 96-well microtiter plates with a final media volume of 0.2 mL/well.

The next assay has as its system Rhizoctonia solani. The assay can be described thus: Broth microdilution MIC of individual antifungals. The note with it: individual antifungal, 25% PDB, about 25° C., 72 hours, range over N independent triplicate studies, read-out: Independent MIC.
In assay [5] the test system is Colletotrichum orbiculare. In words: Broth microdilution MIC of individual antifungals. The note with it: individual antifungal, 25% PDB, about 25° C., 72 hours, range over N independent triplicate studies, read-out: Independent MIC.
The test system of the next assay is Magnaporthe grisea. The assay can be described thus: microbe, parasite or virus in culture. The note with it: Pyricularia oryzae, 72 h, read-out: Independent MIC.
[6] abbreviates: individual antifungal, 25% PDB, about 25° C., 72 hours, range over N independent triplicate studies.

In the case of `CO/C=C(/C(=O)OC)c1ccccc1Oc1cc(Oc2ccccc2C#N)ncn1` [Azoxystrobin, azoxystrobin], the “Independent MIC” value with Fusarium graminearum (setting [6]) was 400 µg/mL; in [1] it was 20 µg/mL; in the assay with Phytophthora pini, 100 µg/mL; in the assay on Mucor sp., 200 µg/mL; in the assay with Stachybotrys chartarum, “(25-50) μg/mL”; in the assay with Botrytis cinerea 10-1728 it was “(110-400) μg/mL”. In addition, the “Independent MIC” value in the assay on Aspergillus fumigatus is “(50-100) μg/mL”; in the assay on Penicillium chrysogenum it was “(0.39-1.5) μg/mL”; in the assay on Botrytis cinerea B17 it was “(12.5-25)^ μg/mL”; with Pythium aphanodermatum it was 6.25 µg/mL; in the assay with Alternaria solani, 100 µg/mL.
In the case of `Nc1ccc2c(c1)COB2O` [B2, 5-Amino-1,3-dihydro-2,1-benzoxaborol-1-ol], the MIC (in the assay with Aspergillus flavus (setting [6]); in assay [1]; in the assay with Mucor sp.; in the assay on Stachybotrys chartarum; in the assay with Botrytis cinerea 10-1728; with Aspergillus fumigatus) was above 32 µg/mL throughout. Besides, the MIC (in assay [2]; with Botrytis cinerea B17; in the assay with Rhizopus sp.; in the assay with Fusarium verticillioides; in assay [3]; in the assay on Sclerotinia homoeocarpa) was above 32 µg/mL in each case. The MIC with Fusarium oxysporum ST33, in the assay with Alternaria solani, in the assay with Aspergillus niger and with Aureobasidium pullulans was above 32 µg/mL each time.
Regarding `N#Cc1c(Cl)c(Cl)c(Cl)c(C#N)c1Cl` [Chlorothalonil, chlorothalonil], the MIC lay in the range of 0.1 to 0.2 µg/mL in the assay on Aspergillus flavus (setting [6]); 0.78 to 1.56 µg/mL (≈ 2.93 to 5.87 µM) in the assay with Fusarium graminearum; 0.78 to 1 µg/mL in assay [1]; 0.78 to 1 µg/mL in the assay with Mucor sp.; 0.2 to 0.5 µg/mL with Botrytis cinerea 10-1728; 0.1 to 0.2 µg/mL in the assay with Aspergillus fumigatus. The MIC in assay [2] was 12.5 to 25 µg/mL; with Penicillium chrysogenum (read-out: Independent MIC) it was 0.1 µg/mL; in the assay with Rhizopus sp. it was 0.78 µg/mL; with Fusarium verticillioides, 0.75 to 0.78 µg/mL; with Sclerotinia homoeocarpa, 0.39 to 0.78 µg/mL; in the assay on Alternaria solani, 1 to 1.56 µg/mL. The MIC in the assay on Candida albicans was 0.78 µg/mL; in assay [4], above 25 µg/mL; with Aspergillus niger, 0.39 to 1 µg/mL; with Rhizoctonia solani, 1.56 µg/mL; in [5], 0.39 µg/mL.
As to `CC1(C(=O)Nc2ccc(O)c(Cl)c2Cl)CCCCC1` [Fenhexamid, fenhexamid], the MIC with Aspergillus flavus (72 h) was 3.12 to 6.25 µg/mL; with Fusarium graminearum, 25 to 50 µg/mL (≈ 82.7 to 165 µM); in the assay with Magnaporthe grisea, 3.12 µg/mL (≈ 10.3 µM); in [1], 100 to 200 µg/mL; with Phytophthora pini it was 50 µg/mL; with Mucor sp., 100 µg/mL. For the same molecule, the MIC in the assay with Stachybotrys chartarum is 12.5 µg/mL; with Botrytis cinerea 10-1728, 200 µg/mL; with Aspergillus fumigatus, 400 µg/mL; in the assay on Botrytis cinerea B17, 4 µg/mL; in the assay on Sclerotinia homoeocarpa, 64 µg/mL; with Pythium aphanodermatum it was 0.78 to 0.8 µg/mL. Further, the figures for the MIC (in the assay with Alternaria solani; in assay [5]; in the assay on Aureobasidium pullulans) were 100 to 200 µg/mL, 100 to 200 µg/mL and 100 µg/mL, respectively.
